Reference: the supplement of paper PMC11551840

Tests used:
Test in all cases: IC50 (cell viability, 72 h) (ln(µM))
SCC-9 = system: SCC-9
Protocol: (§1)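 Discovery screen of OSCC cell lines in 1,536-well plates. Cells were treated 24 h after seeding with 7 concentrations spanning a 1,000-fold half-log range for 72 h, and viability was read by CellTiter-Glo 2.0 and normalised to DMSO (1) and medium-only (0) controls. IC50 comes from a two-parameter logistic nonlinear mixed-effects fit and is reported as natural log of IC50 in µM.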

PE-CA-PJ15 = system: PE-CA-PJ15
Protocol: as §1

ORL-136 = system: ORL-136
Protocol: as §1

HSC-2 = system: HSC-2
Protocol: as §1

ORL-150 = system: ORL-150
Protocol: as §1

ORL-153 = system: ORL-153
Protocol: as §1

BICR10 = system: BICR10
Protocol: as §1

ORL-115 = system: ORL-115
Protocol: as §1

ORL-215 = system: ORL-215
Protocol: as §1

ORL-188 = system: ORL-188
Protocol: as §1

HO-1-u-1 = system: HO-1-u-1
Protocol: as §1

ORL-166 = system: ORL-166
Protocol: as §1

ORL-204 = system: ORL-204
Protocol: as §1

ORL-207 = system: ORL-207
Protocol: as §1

ORL-48 = system: ORL-48
Protocol: as §1

SAS = system: SAS
Protocol: as §1

ORL-174 = system: ORL-174
Protocol: as §1

HSC-4 = system: HSC-4
Protocol: as §1

ORL-156 = system: ORL-156
Protocol: as §1

ORL-195 = system: ORL-195
Protocol: as §1

ORL-214 = system: ORL-214
Protocol: as §1

| SMILES | IC50 (ln) (SCC-9) | IC50 (ln) (PE-CA-PJ15) | IC50 (ln) (ORL-136) | IC50 (ln) (HSC-2) | IC50 (ln) (ORL-150) | IC50 (ln) (ORL-153) | IC50 (ln) (BICR10) | IC50 (ln) (ORL-115) | IC50 (ln) (ORL-215) | IC50 (ln) (ORL-188) | IC50 (ln) (HO-1-u-1) | IC50 (ln) (ORL-166) | IC50 (ln) (ORL-204) | IC50 (ln) (ORL-207) | IC50 (ln) (ORL-48) | IC50 (ln) (SAS) | IC50 (ln) (ORL-174) | IC50 (ln) (HSC-4) | IC50 (ln) (ORL-156) | IC50 (ln) (ORL-195) | IC50 (ln) (ORL-214) |
| --- | --- | --- | --- | --- | --- | --- | --- | --- | --- | --- | --- | --- | --- | --- | --- | --- | --- | --- | --- | --- | --- |
| Cc1[nH]c2ccccc2c1CCNCc1ccc(/C=C/C(=O)NO)cc1 [Panobinostat] | 0.43 | -0.846 | -0.667 | -1.23 | -1.77 | -2.26 | -0.934 | 0.481 | -1.39 | -2 | -1.92 | -2.65 | -1.01 | -2.37 | -2.37 | -1.8 | -2.11 | -0.0634 | -2.16 | -1.26 | -1.97 |
| CO[C@H]1C[C@@H]2CC[C@@H](C)[C@@](O)(O2)C(=O)C(=O)N2CCCC[C@H]2C(=O)O[C@H]([C@H](C)C[C@@H]2CC[C@@H](O)[C@H](OC)C2)CC(=O)[C@H](C)/C=C(\C)[C@@H](O)[C@@H](OC)C(=O)[C@H](C)C[C@H](C)/C=C/C=C/C=C/1C [Rapamycin] | -0.629 | -0.663 | -2.47 | -2.87 | -1.89 | -2.68 | -2.25 | -0.458 | -0.198 | -2.93 | -2.71 | -2.82 | -1.41 | -3.35 | -2.12 | -0.895 | -3.89 | -1.49 | -3.47 | -2.97 | -4.26 |
| C/C=C1\NC(=O)[C@H]2CSSCC/C=C/[C@H](CC(=O)N[C@H](C(C)C)C(=O)N2)OC(=O)[C@H](C(C)C)NC1=O [Romidepsin] | -3.68 | -3.12 | -4.02 | -4.88 | -5.04 | -5.8 | -4.05 | -3.74 | -4.27 | -5.03 | -5.24 | -5.72 | -4.13 | -4.74 | -5.62 | -4.87 | -5.44 | -2.03 | -4.55 | -3.85 | -3.64 |
| CCc1c2c(nc3ccc(O)cc13)-c1cc3c(c(=O)n1C2)COC(=O)[C@]3(O)CC [SN-38] | -0.268 | -2.9 | -0.854 | -5.53 | -3.32 | -4.49 | -1.02 | -1.9 | -3.53 | -4.81 | -1.5 | -3.75 | -5 | -5.13 | -2.86 | -5.93 | -3.86 | -4.28 | -2.97 | -2.3 | -5.1 |
| COCC[n+]1c2c(n(Cc3cnccn3)c1C)C(=O)c1ccccc1C2=O [Sepantronium bromide] | -6.15 | -4.17 | -6.45 | -5.94 | -4.45 | -5.11 | -2.2 | -1.33 | -3.91 | -4.09 | -3.53 | -2.05 | -3.1 | -5.9 | -6.01 | -6.78 | -4.12 | -4.35 | -6.01 | -2.96 | -5.54 |
